Columns and labels:
[1] = DHA-EE distribution after single periorbital skin administration; format: in vivo, Bama minipigs
Description: In this example, 6174 μg/eye of docohexaenoic acid ethyl ester (DHA-EE) was applied to the periorbital skin of a left eye of a Bama minipig. […] 21099.7 ng/g of tissue and 21336.3 ng/g of tissue of DHA was measured in the left and right halves of the brain, respectively. […] The average amount of DHA present in the brain 3 hours post-dosage was 21218 ng/g.
Given that the average Bama pig brain weighs around 60 g, the amount of DHA delivered to the brain can be estimated to be 27,600 ng or 27.6 μg. Therefore, the percentage of administered dose=27.6 μg delivered to brain/6174 μg dosed=0.45% of DHA topically administered to the pig via periorbital administration was delivered to the brain. As a comparison, only about 0.025% of DHA that is orally administered is delivered to the brain or CNS.

[2] = Baseline endogenous levels of DHA, DHA-EE and JV-DE1; format: in vivo; details: undosed Bama minipigs
Description: Endogenous levels were measured in the plasma, cerebrospinal fluid, ocular tissues (retina, optic nerve, ocular muscles), and brain. The endogenous levels DHA are not attributable to NIODP administration of DHA, DHA-EE, or JV-DE1. The baseline data collected in Table 4 was taken from the same lot of pigs, from the same vendor, as the information collected in Tables 5-7.

[3] = 0 h, DHA-EE 6174 μg to periorbital skin of left eye
[4] = 1 h, DHA-EE 6174 μg to periorbital skin of left eye
[5] = 3 h, DHA-EE 6174 μg to periorbital skin of left eye

## CC/C=C\C/C=C\C/C=C\C/C=C\C/C=C\C/C=C\CCC(=O)OCC [DHA-EE, Docosahexaenoic acid ethyl ester]
[1]; [3]
  Drug Concentration in Plasma, analyte DHA: BLQ
  Drug Concentration in Plasma, analyte DHA-EE: BLQ
[1]; [4]
  Drug Concentration in Plasma, analyte DHA: BLQ
  Drug Concentration in Plasma, analyte DHA-EE: BLQ
[1]; 3 h, DHA-EE 6174 μg periorbital, whole brain estimate
  Percentage of administered dose delivered to the brain (as DHA): 0.45%
[1]; [5]
  Analyte DHA, % of administered dose: Cerebrospinal fluid: 0%
  Analyte DHA, % of administered dose: brain-left: 0.332%
  Analyte DHA, % of administered dose: brain-right: 0.562%
  Analyte DHA, % of administered dose: inferior rectus muscle-left: 0.008%
  Analyte DHA, % of administered dose: inferior rectus muscle-right: 0.009%
  Analyte DHA, % of administered dose: lateral rectus muscle-left: 0.004%
  Analyte DHA, % of administered dose: lateral rectus muscle-right: 0.010%
  Analyte DHA, % of administered dose: medial rectus muscle-left: 0.020%
  Analyte DHA, % of administered dose: medial rectus muscle-right: 0.016%
  Analyte DHA, % of administered dose: optic nerve-left: 0.011%
  Analyte DHA, % of administered dose: optic nerve-right: 0.031%
  Analyte DHA, % of administered dose: retina-left: 0.130%
  Analyte DHA, % of administered dose: retina-right: 0.110%
  Analyte DHA, % of administered dose: superior rectus muscle-left: 0.043%
  Analyte DHA, % of administered dose: superior rectus muscle-right: 0.005%
  Analyte DHA, Concentration in Tissue: Cerebrospinal fluid: 0 ng/g
  Analyte DHA, Concentration in Tissue: brain-left: 21099.7 ng/g
  Analyte DHA, Concentration in Tissue: brain-right: 21336.3 ng/g
  Analyte DHA, Concentration in Tissue: inferior rectus muscle-left: 3161.1 ng/g
  Analyte DHA, Concentration in Tissue: inferior rectus muscle-right: 1287.8 ng/g
  Analyte DHA, Concentration in Tissue: lateral rectus muscle-left: 1356.3 ng/g
  Analyte DHA, Concentration in Tissue: lateral rectus muscle-right: 1085.6 ng/g
  Analyte DHA, Concentration in Tissue: medial rectus muscle-left: 4874.6 ng/g
  Analyte DHA, Concentration in Tissue: medial rectus muscle-right: 1690.7 ng/g
  Analyte DHA, Concentration in Tissue: optic nerve-left: 8794.6 ng/g
  Analyte DHA, Concentration in Tissue: optic nerve-right: 8839.4 ng/g
  Analyte DHA, Concentration in Tissue: retina-left: 48882.9 ng/g
  Analyte DHA, Concentration in Tissue: retina-right: 41629.4 ng/g
  Analyte DHA, Concentration in Tissue: superior rectus muscle-left: 10400.7 ng/g
  Analyte DHA, Concentration in Tissue: superior rectus muscle-right: 743.6 ng/g
  Analyte DHA-EE, % of administered dose: Cerebrospinal fluid: 0%
  Analyte DHA-EE, % of administered dose: brain-left: 0%
  Analyte DHA-EE, % of administered dose: brain-right: 0%
  Analyte DHA-EE, % of administered dose: inferior rectus muscle-left: 0.02%
  Analyte DHA-EE, % of administered dose: inferior rectus muscle-right: 0%
  Analyte DHA-EE, % of administered dose: lateral rectus muscle-left: 0.003%
  Analyte DHA-EE, % of administered dose: lateral rectus muscle-right: 0%
  Analyte DHA-EE, % of administered dose: medial rectus muscle-left: 0.02%
  Analyte DHA-EE, % of administered dose: medial rectus muscle-right: 0%
  Analyte DHA-EE, % of administered dose: optic nerve-left: 0%
  Analyte DHA-EE, % of administered dose: optic nerve-right: 0%
  Analyte DHA-EE, % of administered dose: retina-left: 0%
  Analyte DHA-EE, % of administered dose: retina-right: 0%
  Analyte DHA-EE, % of administered dose: superior rectus muscle-left: 0.04%
  Analyte DHA-EE, % of administered dose: superior rectus muscle-right: 0%
  Analyte DHA-EE, Concentration in Tissue: Cerebrospinal fluid: 0 ng/g
  Analyte DHA-EE, Concentration in Tissue: brain-left: 0 ng/g
  Analyte DHA-EE, Concentration in Tissue: brain-right: 0 ng/g
  Analyte DHA-EE, Concentration in Tissue: inferior rectus muscle-left: 7444.8 ng/g
  Analyte DHA-EE, Concentration in Tissue: inferior rectus muscle-right: 0 ng/g
  Analyte DHA-EE, Concentration in Tissue: lateral rectus muscle-left: 995.7 ng/g
  Analyte DHA-EE, Concentration in Tissue: lateral rectus muscle-right: 0 ng/g
  Analyte DHA-EE, Concentration in Tissue: medial rectus muscle-left: 7382.3 ng/g
  Analyte DHA-EE, Concentration in Tissue: medial rectus muscle-right: 0 ng/g
  Analyte DHA-EE, Concentration in Tissue: optic nerve-left: 0 ng/g
  Analyte DHA-EE, Concentration in Tissue: retina-left: 0 ng/g
  Analyte DHA-EE, Concentration in Tissue: retina-right: 0 ng/g
  Analyte DHA-EE, Concentration in Tissue: superior rectus muscle-left: 12844.5 ng/g
  Analyte DHA-EE, Concentration in Tissue: superior rectus muscle-right: 0 ng/g
  Average DHA present in the brain: 21218 ng/g
  DHA-EE in ocular muscles of the dosed eye: detectable
  DHA-EE measured in the brain: no DHA-EE was measured in the brain
  Drug Concentration in Plasma, analyte DHA: BLQ
  Drug Concentration in Plasma, analyte DHA-EE: BLQ
[2]
  Baseline endogenous concentration in brain: BLQ
  Baseline endogenous concentration in cerebrospinal fluid: BLQ
  Baseline endogenous concentration in eye tissue homogenate including (Retina, optic nerve, ocular muscle): BLQ
  Baseline endogenous concentration in plasma: BLQ

— patent US20240350447A1, “DELIVERY METHODS FOR TREATING BRAIN AND CENTRAL NERVOUS SYSTEM DISEASES” (JENIVISION INC., priority 2021, published 2024)
